# Reference: patent publication US12049450B2, “Pyridyloxy-carboxylate derivative and preparation method therefor, herbicidal composition, and use” (Qingdao Kingagroot Chemical Compound Co., Ltd., priority 2018, dated 2024)
# Key:
# Assay in all cases: Post-emergence test experiment (greenhouse pot, spray at 2-3 leaf stage)
# Format in all cases: in vivo
# Details in all cases: 1000 g/ha; post-emergence spray at 2-3 leaf stage; assessed after 3 weeks; fresh weight inhibition rate
# [1] = tested on: Digitaria sanguinalis
# Excerpt: (§1) The activity level standard of harmful plants destruction (i. e. growth inhibition rate) is as follows: • Level 5: the growth inhibition rate is greater than 85%; • Level 4: the growth inhibition rate is equal to or greater than 60% and less than 85%; • Level 3: the growth inhibition rate is equal to or greater than 40% and less than 60%; • Level 2: the growth inhibition rate is equal to or greater than 20% and less than 40%; • Level 1: the growth inhibition rate is equal to or greater than 5% and less than 20%; • Level 0: the growth inhibition rate is less than 5%;
# (§2) The above described growth inhibition rate is fresh weight inhibition rate.
# (§3) Post-emergence test experiment: Monocotyledonous and dicotyledonous weed seeds and main crop seeds (i. e. wheat, corn, rice, soybean, cotton, oilseed, millet and sorghum.) were put into a plastic pot loaded with soil. Then covered with 0.5-2 cm soil, the seeds were allowed to grow in good greenhouse environment. The test plants were treated at 2-3 leaf stage 2 weeks after sowing. The test compounds of the invention were dissolved with acetone respectively, then added with tween-80, and using 1.5 liters per hectare of an emulsible concentrate of methyl oleate as a synergist, and diluted by certain amount of water to certain concentration. The solution was sprayed to the plants with a sprayer. Then the plants were cultured for 3 weeks in the greenhouse, and the experiment result of weed controlling effect after 3 weeks was listed in tables 3-4.
# [2] = tested on: Echinochloa crusgalli
# Excerpt: as §1, §2, §3
# [3] = tested on: Galium spurium
# Excerpt: as §1, §2, §3
# [4] = tested on: Monochoria vaginalis
# Excerpt: as §1, §2, §3
# [5] = tested on: Abutilon theophrasti
# Excerpt: as §1, §2, §3
SMILES,Activity level (growth inhibition rate) Digitaria sanguinalis [1],Activity level (growth inhibition rate) Echinochloa crusgalli [2],Activity level (growth inhibition rate) Galium spurium [3],Activity level (growth inhibition rate) Monochoria Vaginalis [4],Activity level (growth inhibition rate) Abutilon theophrasti [5]
CC(Oc1nc(F)c(Cl)c(N)c1Cl)C(=O)OCc1ccncc1 (racemic) [Compound 117],5 (Level 5: the growth inhibition rate is greater than 85%),5 (Level 5: the growth inhibition rate is greater than 85%),5 (Level 5: the growth inhibition rate is greater than 85%),5 (Level 5: the growth inhibition rate is greater than 85%),5 (Level 5: the growth inhibition rate is greater than 85%)
Cc1cc(CSC(=O)C(C)Oc2nc(F)c(Cl)c(N)c2Cl)ccn1 (racemic) [Compound 118],5 (Level 5: the growth inhibition rate is greater than 85%),5 (Level 5: the growth inhibition rate is greater than 85%),5 (Level 5: the growth inhibition rate is greater than 85%),5 (Level 5: the growth inhibition rate is greater than 85%),5 (Level 5: the growth inhibition rate is greater than 85%)
CC(Oc1nc(F)c(Cl)c(N)c1Cl)C(=O)SCCc1cnccc1Cl (racemic) [Compound 119],5 (Level 5: the growth inhibition rate is greater than 85%),5 (Level 5: the growth inhibition rate is greater than 85%),5 (Level 5: the growth inhibition rate is greater than 85%),5 (Level 5: the growth inhibition rate is greater than 85%),5 (Level 5: the growth inhibition rate is greater than 85%)
Cc1nc(OC(C)C(=O)OCc2ccccc2)c(Cl)c(N)c1Cl (stereo not shown) [Compound 5],5 (Level 5: the growth inhibition rate is greater than 85%),5 (Level 5: the growth inhibition rate is greater than 85%),5 (Level 5: the growth inhibition rate is greater than 85%),5 (Level 5: the growth inhibition rate is greater than 85%),5 (Level 5: the growth inhibition rate is greater than 85%)
CC(Oc1nc(C(F)(F)F)c(Cl)c(N)c1Cl)C(=O)SCc1ccccc1 (stereo not shown) [Compound 6],5 (Level 5: the growth inhibition rate is greater than 85%),5 (Level 5: the growth inhibition rate is greater than 85%),5 (Level 5: the growth inhibition rate is greater than 85%),5 (Level 5: the growth inhibition rate is greater than 85%),5 (Level 5: the growth inhibition rate is greater than 85%)
CCc1c(OC(C)C(=O)SCc2ccccc2)nc(C(F)(F)F)c(CC)c1N (stereo not shown) [Compound 8],5 (Level 5: the growth inhibition rate is greater than 85%),5 (Level 5: the growth inhibition rate is greater than 85%),5 (Level 5: the growth inhibition rate is greater than 85%),5 (Level 5: the growth inhibition rate is greater than 85%),5 (Level 5: the growth inhibition rate is greater than 85%)
CC(Oc1ncc(C(C)C)c(N)c1Cl)C(=O)OCc1ccccc1 (stereo not shown) [Compound 9],5 (Level 5: the growth inhibition rate is greater than 85%),5 (Level 5: the growth inhibition rate is greater than 85%),5 (Level 5: the growth inhibition rate is greater than 85%),5 (Level 5: the growth inhibition rate is greater than 85%),5 (Level 5: the growth inhibition rate is greater than 85%)
CC(Oc1nc(Cl)c(C2CC2)c(N)c1Cl)C(=O)OCc1ccccc1 (stereo not shown) [Compound 10],5 (Level 5: the growth inhibition rate is greater than 85%),5 (Level 5: the growth inhibition rate is greater than 85%),5 (Level 5: the growth inhibition rate is greater than 85%),5 (Level 5: the growth inhibition rate is greater than 85%),5 (Level 5: the growth inhibition rate is greater than 85%)
CC(Oc1nc(C(F)(F)F)c(F)c(N)c1C(C)C)C(=O)OCc1ccccc1 (stereo not shown) [Compound 11],5 (Level 5: the growth inhibition rate is greater than 85%),5 (Level 5: the growth inhibition rate is greater than 85%),5 (Level 5: the growth inhibition rate is greater than 85%),5 (Level 5: the growth inhibition rate is greater than 85%),5 (Level 5: the growth inhibition rate is greater than 85%)
CC(Oc1ncc(I)c(N)c1I)C(=O)OCc1ccccc1 (stereo not shown) [Compound 13],5 (Level 5: the growth inhibition rate is greater than 85%),5 (Level 5: the growth inhibition rate is greater than 85%),5 (Level 5: the growth inhibition rate is greater than 85%),5 (Level 5: the growth inhibition rate is greater than 85%),5 (Level 5: the growth inhibition rate is greater than 85%)
CCCc1c(F)nc(OC(C)C(=O)SCc2ccccc2)c(C2CC2)c1N (stereo not shown) [Compound 14],5 (Level 5: the growth inhibition rate is greater than 85%),5 (Level 5: the growth inhibition rate is greater than 85%),5 (Level 5: the growth inhibition rate is greater than 85%),5 (Level 5: the growth inhibition rate is greater than 85%),5 (Level 5: the growth inhibition rate is greater than 85%)
CC(Oc1nc(F)c(C(F)(F)F)c(N)c1Cl)C(=O)OCc1ccccc1 (stereo not shown) [Compound 15],5 (Level 5: the growth inhibition rate is greater than 85%),5 (Level 5: the growth inhibition rate is greater than 85%),5 (Level 5: the growth inhibition rate is greater than 85%),5 (Level 5: the growth inhibition rate is greater than 85%),5 (Level 5: the growth inhibition rate is greater than 85%)
CC(Oc1ncc(Cl)c(N)c1C(F)(F)F)C(=O)OCc1ccccc1 (stereo not shown) [Compound 16],5 (Level 5: the growth inhibition rate is greater than 85%),5 (Level 5: the growth inhibition rate is greater than 85%),5 (Level 5: the growth inhibition rate is greater than 85%),5 (Level 5: the growth inhibition rate is greater than 85%),5 (Level 5: the growth inhibition rate is greater than 85%)
CC(Oc1nc(I)c(Cl)c(N)c1Cl)C(=O)SCc1ccccc1 (stereo not shown) [Compound 17],5 (Level 5: the growth inhibition rate is greater than 85%),5 (Level 5: the growth inhibition rate is greater than 85%),5 (Level 5: the growth inhibition rate is greater than 85%),5 (Level 5: the growth inhibition rate is greater than 85%),5 (Level 5: the growth inhibition rate is greater than 85%)
